Results on two compounds are retold here after the NIST ThermoML archive (doi:10.1021/acs.jced.7b01073).

± gives the expanded uncertainty stated by the source.

For the series the following is noted: Liquid, Closed cell (Static) method.

As usually defined, the vapor or sublimation pressure is the pressure of vapour in equilibrium with the condensed phase. For the compound `C=C(F)C(F)(F)F` [2,3,3,3-tetrafluoro-1-propene], the “vapor or sublimation pressure” value by setting is: (283.15 K) 437.9 ± 7 kPa; (293.15 K) 591.5 ± 7.1 kPa; (303.15 K) 782.9 ± 7.1 kPa; (313.15 K) 1018.2 ± 7.2 kPa; (323.15 K) 1302.4 ± 7.2 kPa.
On to `CCCC` [butane], for which the “vapor or sublimation pressure” value is, setting by setting: (283.15 K) 148.1 ± 1 kPa; (293.15 K) 207.2 ± 1 kPa; (303.15 K) 283.4 ± 1.1 kPa; (313.15 K) 378.6 ± 1.1 kPa; (323.15 K) 496.5 ± 1.2 kPa.
